The results in this text go back to article PMC8861050, “Design, synthesis and evaluation of novel 2-oxoindoline-based acetohydrazides as antitumor agents” (Scientific Reports, 2022).

One data set has as its system SW620 (colon cancer). As to the kind of experiment: SRB cytotoxicity assay, SW620. The data set is classed as cell-based. The note with it: Homo sapiens, SW-620, 48 h incubation, mean ± SEM of 3 independent experiments. From the text: (§1) Three human cancer cell lines: colon cancer (SW620), prostate cancer (PC3), and lung cancer (NCI-H23) were used for sceening the cytotoxicity of the compounds. The cancer cells were purchased from American Type Culture Collection (Manassas, VA, USA). Other reagents/media for cell culture were obtained from GIBCO (Grand Island, New York, USA). The testing cancer cells were culture in Dulbecco’s Modified Eagle Medium until confluence. Then, they were trypsinized and suspended at the level of 3 × 10^4 cells/mL of cell culture medium. On day 0, cancer cells were seeded at a volume of 180 µL/well of 96-well plates and incubated for 24 h at 37 °C in a 5% CO2 incubator. On day 1, 20 µL of various concentrations of testing compounds were added to each well of the 96-well plates. Chemicals were dissolved in dimethyl sulfoxide (DMSO, stock) and diluted in culture medium (1% DMSO) before adding to the culture. After 48 h incubation, the sulforhodamine B assay was used for cell density determination with slight modifications[22]–[26]. The Probits were used for the calculation of IC50 values. The reported IC50 were the averages of three independent screening (SD ≤ 10%)[27].
(§2) Two series of compounds synthesized (4a–p and 5a–f) were evaluated for their cytotoxicity against three human cancer cell lines, including SW620 (colon cancer), PC3 (prostate cancer), NCI-H23 (lung cancer), using SRB method as described previously[22] with slight modifications[23]–[26].
For orientation: The SRB assay estimates cell density from bound dye.

A further data set deals with PC3 (prostate cancer). As to the kind of experiment: SRB cytotoxicity assay, PC3. Format: cell-based. The note with it: Homo sapiens, 48 h incubation, mean ± SEM of 3 independent experiments.
From the text: as §1, §2

A further data set concerns NCI-H23 (lung cancer). As to the kind of experiment: SRB cytotoxicity assay, NCI-H23. Format: cell-based. As to conditions: Homo sapiens, 48 h incubation, mean ± SEM of 3 independent experiments.
From the text: as §1, §2

Data set [1] is described as follows: Cytotoxicity on normal mesenchymal stem cells. As to conditions: human bone marrow-derived mesenchymal stem cells; mean ± SEM; read-out: Cytotoxicity (IC50) MSCs. The data set is classed as cell-based. As to the method:
Overally, 5-fluorinated compounds (4i–p and 5d–f) were slightly more cytotoxic than non-fluorinated ones (4a–h, 5a–c). For compounds in series 4a–p, it was observed that, electron-releasing substituents (–OCH3, OH) were generally better than electron-withdrawing groups (–Cl) for cytotoxicity. Especially, compounds with 2-OH substituents produced the best cytotoxicity. The addition of either 4-OCH3 or 3-allyl groups further enhanced cytotoxicity of the related compounds (4g, 4h and 4o, 4p).

In turn, `O=C(CN1C(=O)Cc2ccccc21)N/N=C/c1cccc(Cl)c1` [Compound 4c, (E)-N'-(3-Chlorobenzylidene)-2-(2-oxoindolin-1-yl)acetohydrazide] registered a melting point of 181 to 182 °C. The compound further came in with a half-inhibitory concentration (IC50) in the data set with SW620 (colon cancer) of 15.3 ± 1.01 µM. The compound further registered an IC50 in the data set with PC3 (prostate cancer) of 14.2 ± 1 µM. In the data set with NCI-H23 (lung cancer), this compound displayed a half-maximal inhibitory concentration (IC50) of 13.5 ± 1.11 µM. Also, the 50% inhibitory concentration (IC50) in data set [1] was more than 30 µM.
Turning to `O=C(CN1C(=O)Cc2cc(F)ccc21)N/N=C1\C(=O)Nc2ccc(Cl)cc21` [Compound 5e, (Z)-N'-(5-Chloro-2-oxoindolin-3-ylidene)-2-(5-fluoro-2-oxoindolin-1-yl)acetohydrazide], the melting point lay in the range of 221 to 222 °C. The IC50 in the data set on SW620 (colon cancer) worked out at 15.3 ± 1.5 µM. Also, half-maximal inhibition in the data set on PC3 (prostate cancer) (IC50) required 14.7 ± 1.71 µM. In the data set with NCI-H23 (lung cancer), this compound came in with a half-inhibitory concentration (IC50) of 15.5 ± 1.36 µM. For the same compound, the IC50 in data set [1] is more than 30 µM.
The like results for `O=C(CN1C(=O)Cc2ccccc21)N/N=C/c1ccc(Cl)cc1` [Compound 4d, (E)-N'-(4-Chlorobenzylidene)-2-(2-oxoindolin-1-yl)acetohydrazide] were, in that order, 185 to 187 °C, 16.3 ± 1.21 µM, 17.4 ± 1.34 µM, 15.6 ± 1.43 µM and more than 30 µM.
Taken in the same sequence, the figures for `O=C(CN1C(=O)Cc2ccccc21)N/N=C1\C(=O)Nc2ccc(Cl)cc21` [Compound 5b, (Z)-N'-(5-Chloro-2-oxoindolin-3-ylidene)-2-(2-oxoindolin-1-yl)acetohydrazide] were 201 to 202 °C, 17.4 ± 1.43 µM, 18.4 ± 1.53 µM, 16.5 ± 1.33 µM and more than 30 µM.
The like results for `O=C(CN1C(=O)Cc2cc(F)ccc21)N/N=C/c1ccccc1` [Compound 4i, (E)-N'-Benzylidene-2-(5-fluoro-2-oxoindolin-1-yl)acetohydrazide] were, in that order, 173 to 174 °C, 9.54 ± 0.74 µM, 8.56 ± 0.52 µM, 8.44 ± 0.67 µM and more than 30 µM.
For `O=C(CN1C(=O)Cc2cc(F)ccc21)N/N=C/c1ccc(Cl)cc1` [Compound 4l, (E)-N'-(4-Chlorobenzylidene)-2-(5-fluoro-2-oxoindolin-1-yl)acetohydrazide], the melting point lay within 191 to 192 °C. In the data set with SW620 (colon cancer), this compound had an IC50 of 14.3 ± 1.21 µM. The compound also returned an IC50 in the data set on PC3 (prostate cancer) of 17.8 ± 1.58 µM. Besides, in the data set on NCI-H23 (lung cancer), 16.4 ± 1.77 µM corresponded to half-maximal inhibition (IC50). Besides, the concentration for half-maximal inhibition (IC50) in data set [1] is more than 30 µM.
The like results for `O=C(CN1C(=O)Cc2ccccc21)N/N=C/c1ccccc1` [Compound 4a, (E)-N'-Benzylidene-2-(2-oxoindolin-1-yl)acetohydrazide] were, in that order, 167 to 168 °C, 10.1 ± 0.91 µM, 12.2 ± 0.99 µM, 10.4 ± 0.87 µM and more than 30 µM.
Turning to `O=C(CN1C(=O)Cc2cc(F)ccc21)N/N=C/c1ccccc1Cl` [Compound 4j, (E)-N'-(2-Chlorobenzylidene)-2-(5-fluoro-2-oxoindolin-1-yl)acetohydrazide], the melting point lay in the range of 185 to 186 °C. Also, in the data set with SW620 (colon cancer), the concentration for half-maximal inhibition (IC50) is 7.56 ± 0.57 µM. The same compound returned an IC50 in the data set with PC3 (prostate cancer) of 8.43 ± 0.59 µM. The concentration for half-maximal inhibition (IC50) in the data set on NCI-H23 (lung cancer) worked out at 8 ± 0.98 µM. Further, in data set [1], the half-inhibitory concentration (IC50) was more than 30 µM.
The like results for `COc1ccc(/C=N/NC(=O)CN2C(=O)Cc3ccccc32)c(O)c1` [Compound 4g, (E)-N'-(2-Hydroxy-4-methoxybenzylidene)-2-(2-oxoindolin-1-yl)acetohydrazide] were, in that order, 177 to 178 °C, 3.34 ± 0.31 µM, 4.32 ± 0.34 µM, 2.59 ± 0.21 µM and 15.5 ± 0.64 µM.
Taken in the same sequence, the figures for `O=C(CN1C(=O)Cc2cc(F)ccc21)N/N=C1\C(=O)Nc2ccccc21` [Compound 5d, (Z)-2-(5-Fluoro-2-oxoindolin-1-yl)-N'-(2-oxoindolin-3-ylidene)acetohydrazide] were 215 to 216 °C, 12.4 ± 1.21 µM, 14.6 ± 1.27 µM, 13.6 ± 1.31 µM and more than 30 µM.
As for `O=C(CN1C(=O)Cc2cc(F)ccc21)N/N=C/c1cccc(Cl)c1` [Compound 4k, (E)-N'-(3-Chlorobenzylidene)-2-(5-fluoro-2-oxoindolin-1-yl)acetohydrazide], the melting point was in the range of 187 to 188 °C. Also, half-maximal inhibition in the data set on SW620 (colon cancer) (IC50) required 16.4 ± 1.19 µM. The IC50 with PC3 (prostate cancer) came out at 16.4 ± 1.56 µM. For the same compound, in the data set on NCI-H23 (lung cancer), the IC50 amounted to 17.4 ± 1.54 µM. Also, the IC50 in data set [1] is more than 30 µM.
Taken in the same sequence, the figures for `COc1ccc(/C=N/NC(=O)CN2C(=O)Cc3ccccc32)cc1` [Compound 4e, (E)-N'-(4-Methoxybenzylidene)-2-(2-oxoindolin-1-yl)acetohydrazide] were 168 to 169 °C, 9.01 ± 0.74 µM, 7.43 ± 0.45 µM, 8.72 ± 0.33 µM and more than 30 µM.
The like results for `Cc1ccc2c(c1)/C(=N/NC(=O)CN1C(=O)Cc3ccccc31)C(=O)N2` [Compound 5c, (Z)-N'-(5-Methyl-2-oxoindolin-3-ylidene)-2-(2-oxoindolin-1-yl)acetohydrazide] were, in that order, 198 to 199 °C, 17.6 ± 1.32 µM, 19.6 ± 2.01 µM, 18.4 ± 1.87 µM and more than 30 µM.
Taken in the same sequence, the figures for `COc1ccc(/C=N/NC(=O)CN2C(=O)Cc3cc(F)ccc32)cc1` [Compound 4m, (E)-N'-(4-Methoxybenzylidene)-2-(5-fluoro-2-oxoindolin-1-yl)acetohydrazide] were 175 to 176 °C, 7.52 ± 0.63 µM, 7.33 ± 0.42 µM, 7.43 ± 0.56 µM and more than 30 µM.
As for `O=C(CN1C(=O)Cc2ccccc21)N/N=C1\C(=O)Nc2ccccc21` [Compound 5a, (Z)-2-(2-Oxoindolin-1-yl)-N'-(2-oxoindolin-3-ylidene)acetohydrazide], the melting point lay in the range of 191 to 192 °C. Also, the IC50 in the data set with SW620 (colon cancer) turned out to be 16.4 ± 1.05 µM. Besides, in the data set with PC3 (prostate cancer), the half-maximal inhibitory concentration (IC50) is 14.3 ± 1.21 µM. In the data set with NCI-H23 (lung cancer), the midpoint of inhibition, the IC50, lay at 15.3 ± 1.32 µM. Also, the half-maximal inhibitory concentration (IC50) in data set [1] is more than 30 µM.
Taken in the same sequence, the figures for `Cc1ccc2c(c1)/C(=N/NC(=O)CN1C(=O)Cc3cc(F)ccc31)C(=O)N2` [Compound 5f, (Z)-2-(5-Fluoro-2-oxoindolin-1-yl)-N'-(5-methyl-2-oxoindolin-3-ylidene)acetohydrazide] were 217 to 218 °C, 12.7 ± 1.22 µM, 15.3 ± 1.7 µM, 14.9 ± 1.83 µM and more than 30 µM.
`O=C(CN1C(=O)Cc2ccccc21)N/N=C/c1ccccc1Cl` [Compound 4b, (E)-N'-(2-Chlorobenzylidene)-2-(2-oxoindolin-1-yl)acetohydrazide]: the melting point fell in the range of 179 to 181 °C. This compound displayed a concentration for half-maximal inhibition (IC50) in the data set on SW620 (colon cancer) of 9.91 ± 0.76 µM. In the data set with PC3 (prostate cancer), this compound registered a half-inhibitory concentration (IC50) of 8.72 ± 0.71 µM. Moreover, the IC50 in the data set with NCI-H23 (lung cancer) was 8.34 ± 0.52 µM. Further, the half-maximal inhibitory concentration (IC50) in data set [1] was more than 30 µM.

For orientation: IC50 means the concentration that inhibits the measured activity by half. One may read the melting point as the temperature of the solid-liquid transition.
